Data set [1] in a line: collision cross section (TIMS, N2 drift gas) of the primary ion; higher = larger gas-phase ion size.
Data set [2] is described as follows: reversed-phase LC retention time (C18, 15 min MeOH gradient); higher = more hydrophobic / later elution.
Setting [3] is: ionization mode: ESI+, ion species: [M+H]+.
Setting [4] is: ionization mode: ESI-, ion species: [M-H]-.
Where [5] appears, read: ionization mode: ESI+, ion species: [M]+.

Turning to `COc1ccc2c(c1)[C@]13CCCC[C@@H]1[C@H](C2)N(C)CC3` [Dextromethorphan], in data set [1] (setting [3]), the collision cross section was found to be 166.66 Å². Also, the “reversed-phase LC retention time” value in data set [2] (setting [3]) amounted to 11.4 min.
In data set [1] (setting [3]), `CCCCC(CC)CNCC(CC)CCCC` (configuration not stated) [Di(2-ethylhexyl)amine] returned a collision cross section of 171.64 Å². The “reversed-phase LC retention time” value in data set [2] (setting [3]) was 14.8 min.
Regarding `CC(CCOC(=O)c1ccccc1C(=O)OCCC(C)CC(C)(C)C)CC(C)(C)C` (configuration not stated) [Di-isononyl phthalate], the collision cross section in data set [1] (setting [3]) worked out at 224 Å². Further, the “reversed-phase LC retention time” value in data set [2] (setting [3]) was determined as 19.6 min.
For the compound `CCCCOP(=O)(O)OCCCC` [Di-n-butyl phosphate], in data set [1] (setting [4]), the collision cross section was determined as 151.01 Å². For the same compound, the “reversed-phase LC retention time” value in data set [2] (setting [4]) came out at 11.6 min.
In data set [1] (setting [3]), `CCCCCCOC(=O)c1ccccc1C(=O)OCCCCCC` [Di-n-hexyl phthalate] had a collision cross section of 195.44 Å². Also, the “reversed-phase LC retention time” value in data set [2] (setting [3]) was found to be 18.2 min.
The compound `CCCCCOC(=O)c1ccccc1C(=O)OCCCCC` [Di-n-pentylphthalate] returned a collision cross section in data set [1] (setting [3]) of 182.77 Å². For the same compound, the “reversed-phase LC retention time” value in data set [2] (setting [3]) was 17.4 min.
`CC(=O)Nc1c(I)c(NC(C)=O)c(I)c(C(=O)O)c1I` [Diatrizoate]: the collision cross section in data set [1] (setting [3]) was found to be 179.28 Å². Moreover, the “reversed-phase LC retention time” value in data set [2] (setting [3]) amounted to 4.56 min.
In data set [1] (setting [3]), `CN1C(=O)CN=C(c2ccccc2)c2cc(Cl)ccc21` [Diazepam] had a collision cross section of 165.95 Å². For the same compound, the “reversed-phase LC retention time” value in data set [2] (setting [3]) is 14.2 min.
For the compound `CCOP(=S)(OCC)Oc1cc(C)nc(C(C)C)n1` [Diazinon], the collision cross section in data set [1] (setting [3]) came out at 172.11 Å². The “reversed-phase LC retention time” value in data set [2] (setting [3]) is 15.6 min.
In data set [1] (setting [3]), `CCCCOC(=O)CCCCCCCCC(=O)OCCCC` [Dibutyl sebacate] showed a collision cross section of 185.48 Å². The “reversed-phase LC retention time” value in data set [2] (setting [3]) is 18 min.
Regarding `CCCCOC(=O)c1ccccc1C(=O)OCCCC` [Dibutylphthalate], the collision cross section in data set [1] (setting [3]) is reported as 169.98 Å². In data set [2] (setting [3]), the “reversed-phase LC retention time” value came out at 16.4 min.
The compound `Oc1ccc(Cl)cc1Cc1cc(Cl)ccc1O` [Dichlorophen] displayed a collision cross section in data set [1] (setting [4]) of 155.04 Å². In addition, the “reversed-phase LC retention time” value in data set [2] (setting [4]) turned out to be 15.3 min.
`COP(=O)(OC)OC=C(Cl)Cl` [Dichlorvos] registered a collision cross section in data set [1] (setting [3]) of 139.26 Å². Further, the “reversed-phase LC retention time” value in data set [2] (setting [3]) is 9.07 min.
Take `O=C(O)Cc1ccccc1Nc1c(Cl)cccc1Cl` [Diclofenac]: the collision cross section in data set [1] (setting [3]) came out at 159.21 Å²; in data set [1] (setting [4]) it was 161.99 Å². For the same compound, the figures for the “reversed-phase LC retention time” value in data set [2] (setting [3]) and in data set [2] (setting [4]) were 15.3 min and 13.3 min, respectively.
`Oc1cc(Cl)ccc1Oc1ccc(Cl)cc1` [Diclosan] displayed a collision cross section in data set [1] (setting [4]) of 152.57 Å². Besides, the “reversed-phase LC retention time” value in data set [2] (setting [4]) worked out at 16.2 min.
Take `O=C(CC(C(=O)OC1CCCCC1)S(=O)(=O)O)OC1CCCCC1` (configuration not stated) [Dicyclohexyl sulfosuccinate]: the collision cross section in data set [1] (setting [3]) is recorded as 201.58 Å²; in data set [1] (setting [4]), 189.02 Å². The “reversed-phase LC retention time” value in data set [2] (setting [3]) and in data set [2] (setting [4]) was 14.2 min throughout.
Regarding `O=C(OC1CCCCC1)c1ccccc1C(=O)OC1CCCCC1` [Dicyclohexylphthalate], in data set [1] (setting [3]), the collision cross section came out at 187.61 Å². For the same compound, in data set [2] (setting [3]), the “reversed-phase LC retention time” value stood at 17.5 min.
Consider `O=C(NC1CCCCC1)NC1CCCCC1` [Dicyclohexylurea], for which the values for the collision cross section in data set [1] (setting [3]) and in data set [1] (setting [4]) were 160.65 Å² and 163.68 Å², respectively. The “reversed-phase LC retention time” value was 13.9 min in data set [2] (setting [3]) and 14.3 min in data set [2] (setting [4]).
With `CCCCCCCCCC[N+](C)(C)CCCCCCCCCC` [Didecyldimethylammonium], the collision cross section in data set [1] (setting [5]) is listed as 211.39 Å². In addition, the “reversed-phase LC retention time” value in data set [2] (setting [5]) turned out to be 17.3 min.
`C[C@]12CCC3=C4CCC(=O)C=C4CC[C@H]3[C@@H]1CC[C@@]2(O)CC#N` [Dienogest] had a collision cross section in data set [1] (setting [3]) of 175.13 Å². Further, the “reversed-phase LC retention time” value in data set [2] (setting [3]) is 12.6 min.
With `CCN(CC)c1ccccc1` [Diethylphenylamine], in data set [1] (setting [3]), the collision cross section was determined as 129.02 Å². Further, the “reversed-phase LC retention time” value in data set [2] (setting [3]) worked out at 6.93 min.
On to `CC/C(=C(/CC)c1ccc(O)cc1)c1ccc(O)cc1` [Diethylstilbestrol], for which the collision cross section in data set [1] (setting [4]) is reported as 175.03 Å². For the same compound, the “reversed-phase LC retention time” value in data set [2] (setting [4]) amounted to 14.5 min.
In data set [1] (setting [3]), `CC1COC(Cn2cncn2)(c2ccc(Oc3ccc(Cl)cc3)cc2Cl)O1` (configuration not stated) [Difenoconazole] displayed a collision cross section of 202.11 Å². The “reversed-phase LC retention time” value in data set [2] (setting [3]) was 16.1 min.
Regarding `O=C(NC(=O)c1c(F)cccc1F)Nc1ccc(Cl)cc1` [Diflubenzuron], the collision cross section in data set [1] (setting [3]) is listed as 163.34 Å²; in data set [1] (setting [4]) it was 167.93 Å². Besides, the “reversed-phase LC retention time” value was found to be 15.1 min in data set [2] (setting [3]) and 15.5 min in data set [2] (setting [4]).
For `O=C(Nc1ccc(F)cc1F)c1cccnc1Oc1cccc(C(F)(F)F)c1` [Diflufenican], the collision cross section came out at 189.49 Å² in data set [1] (setting [3]) and 181.03 Å² in data set [1] (setting [4]). In addition, the “reversed-phase LC retention time” value in data set [2] (setting [3]) amounted to 16.2 min; in data set [2] (setting [4]) it was 16.7 min.
Regarding `CC(C)CCCCOC(=O)c1ccccc1C(=O)OCCCCC(C)C` [Diisoheptyl phthalate], the collision cross section in data set [1] (setting [3]) is listed as 204.46 Å². Also, the “reversed-phase LC retention time” value in data set [2] (setting [3]) amounted to 18.6 min.
Take `CC(C)OC(=O)CCCCCCCCC(=O)OC(C)C` [Diisopropyl sebacate]: in data set [1] (setting [3]), the collision cross section is 172.78 Å². In addition, in data set [2] (setting [3]), the “reversed-phase LC retention time” value came out at 17 min.
In data set [1] (setting [3]), `COc1ccc([C@@H]2Sc3ccccc3N(CCN(C)C)C(=O)[C@@H]2OC(C)=O)cc1` [Diltiazem] yielded a collision cross section of 198.45 Å². Further, the “reversed-phase LC retention time” value in data set [2] (setting [3]) is 12.1 min.
Turning to `COCCN(C(=O)CS(=O)(=O)O)c1c(C)cccc1C` [Dimethachlor ESA], the values for the collision cross section in data set [1] (setting [3]) and in data set [1] (setting [4]) were 164.03 Å² and 167.03 Å², respectively. The “reversed-phase LC retention time” value in data set [2] (setting [3]) was 10 min; in data set [2] (setting [4]), 9.95 min.
In data set [1] (setting [3]), `COCCN(C(=O)CCl)c1c(C)cccc1C` [Dimethachlor] gave a collision cross section of 152.09 Å². Moreover, in data set [2] (setting [3]), the “reversed-phase LC retention time” value came out at 13.3 min.
As to `COCC(C)N(C(=O)CS(=O)(=O)O)c1c(C)csc1C` (configuration not stated) [Dimethenamid ESA], the collision cross section was found to be 166.05 Å² in data set [1] (setting [3]) and 168.76 Å² in data set [1] (setting [4]). In addition, the “reversed-phase LC retention time” value in data set [2] (setting [3]) and in data set [2] (setting [4]) was 10.9 min in each case.
`COCC(C)N(C(=O)C(=O)O)c1c(C)csc1C` (configuration not stated) [Dimethenamid OA]: the results for the collision cross section in data set [1] (setting [3]) and in data set [1] (setting [4]) were 155.28 Å² and 161.26 Å², respectively. Moreover, the entries for the “reversed-phase LC retention time” value in data set [2] (setting [3]) and in data set [2] (setting [4]) were 11.3 min and 10.5 min, respectively.
For `COCC(C)N(C(=O)CCl)c1c(C)csc1C` (configuration not stated) [Dimethenamid], the collision cross section in data set [1] (setting [3]) is given as 155.6 Å². In addition, the “reversed-phase LC retention time” value in data set [2] (setting [3]) was found to be 14 min.
For `CC(C1=C(CCN(C)C)Cc2ccccc21)c1ccccn1` (configuration not stated) [Dimethindene], in that order: 171.03 Å² and 10.4 min.
For `CNC(=O)CSP(=S)(OC)OC` [Dimethoate] the same measures were 141.81 Å² and 9.08 min.
The compound `COC(=O)c1cc(C(=O)OC)cc(S(=O)(=O)O)c1` [Dimethyl-5-sulfoisophthalate] returned a collision cross section in data set [1] (setting [4]) of 162.37 Å². Also, the “reversed-phase LC retention time” value in data set [2] (setting [4]) turned out to be 8.33 min.
In data set [1] (setting [3]), `Cc1c(N(C)C)c(=O)n(-c2ccccc2)n1C` [Dimethylaminophenazone] gave a collision cross section of 151.98 Å². For the same compound, the “reversed-phase LC retention time” value in data set [2] (setting [3]) was 6.95 min.
The compound `CCCCCCCCCCCCCCCCCC[N+](C)(C)CCCCCCCCCCCCCCCCCC` [Dimethyldioctadecylammonium] yielded a collision cross section in data set [1] (setting [5]) of 272.56 Å². The “reversed-phase LC retention time” value in data set [2] (setting [5]) amounted to 21.1 min.
On to `COc1cc2ccc(=O)oc2c(OC)c1OC` [Dimethylfraxetin], for which the collision cross section in data set [1] (setting [3]) is 147.68 Å². Moreover, the “reversed-phase LC retention time” value in data set [2] (setting [3]) was determined as 10.6 min.
Regarding `CNC(=O)/C(=N/OC)c1ccccc1COc1cc(C)ccc1C` [Dimoxystrobin], in data set [1] (setting [3]), the collision cross section came out at 178.04 Å². Moreover, the “reversed-phase LC retention time” value in data set [2] (setting [3]) turned out to be 15.3 min.
In the case of `CCC(C)c1cc([N+](=O)[O-])cc([N+](=O)[O-])c1O` (configuration not stated) [Dinoseb], the collision cross section in data set [1] (setting [4]) is 149.61 Å². In addition, in data set [2] (setting [4]), the “reversed-phase LC retention time” value was 12.3 min.
`C/N=C(/NCC1CCOC1)N[N+](=O)[O-]` (configuration not stated) [Dinotefuran]: the collision cross section came to 141.96 Å² in data set [1] (setting [3]) and 146.7 Å² in data set [1] (setting [4]). Besides, the “reversed-phase LC retention time” value in data set [2] (setting [3]) was 6.27 min; in data set [2] (setting [4]), 6.46 min.

The record behind these values is the supplement of paper PMC12613149.
